Holding throughout (format): cell-based
The test system of test [1] is MCF-7 cells. The test can be described thus: Breast Cancer Cell Viability Assay (MCF7 Viability Assay). To be noted: 5 days' compound exposure, CellTiter-Glo; for IC50: Homo sapiens, MCF7, 120 h. The method, then:
MCF-7 cells were adjusted to a concentration of 20,000 cells per mL in RPMI containing 10% FBS and 20 mM HEPES. 16 microliters of the cell suspension (320 cells) was added to each well of a 384 well plate, and the cells were incubated overnight to allow the cells to adhere. The following day an eleven point, serial semilog dilution of each compound was added to the cells in 16 μL at a final concentration ranging from 0.3-0.000003 μM. After 5 days' compound exposure, 16 μL of CellTiter-GLo (Promega, Madison Wis.) was added to the cells the relative luminescence units (RLUs) of each well was determined. CellTiter-Glo added to 32 μL of medium without cells was used to obtain a background value. The Percent viability of each sample was determined as follows: (RLU sample-RLU background/RLU untreated cells-RLU background)×100=% viability.

Test [2] concerns the target T1, ER-α (Homo sapiens, UniProt P03372).
T1 construct: endogenous in cells; host or cells: MCF-7
T1 sequence (P03372 1-595): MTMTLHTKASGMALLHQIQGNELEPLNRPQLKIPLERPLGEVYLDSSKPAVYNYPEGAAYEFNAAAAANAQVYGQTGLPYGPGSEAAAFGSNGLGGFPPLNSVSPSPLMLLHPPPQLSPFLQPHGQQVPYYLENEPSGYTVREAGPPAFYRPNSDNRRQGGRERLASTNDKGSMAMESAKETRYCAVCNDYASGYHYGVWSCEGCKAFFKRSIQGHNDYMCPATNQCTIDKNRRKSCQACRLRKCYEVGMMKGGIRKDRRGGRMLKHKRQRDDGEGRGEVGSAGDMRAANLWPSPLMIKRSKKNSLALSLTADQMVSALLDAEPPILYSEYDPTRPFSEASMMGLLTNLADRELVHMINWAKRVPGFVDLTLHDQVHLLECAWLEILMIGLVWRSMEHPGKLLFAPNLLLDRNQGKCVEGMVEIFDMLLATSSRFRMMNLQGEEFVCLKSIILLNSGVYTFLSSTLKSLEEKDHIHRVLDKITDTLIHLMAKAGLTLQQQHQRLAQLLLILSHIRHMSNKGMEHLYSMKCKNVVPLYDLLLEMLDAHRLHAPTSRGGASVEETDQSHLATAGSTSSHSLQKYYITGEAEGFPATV
The test can be described thus: ER-α in Cell Western Assay (SP1). Conditions: MCF-7 cells, SP1 rabbit monoclonal Ab, 4 or 24 hr post compound addition, read-out: ER In-Cell Western Assay (SP1); for Emax: MCF7, Max Response; for DC50: IC50. The method, then: (§1) MCF-7 cells were adjusted to a concentration of 200,000 cells per mL in RPMI containing 10% charcoal-stripped FBS and 20 mM HEPES. 16 microliters of the cell suspension (3200 cells) was added to each well of a poly-D-lysine 384 well plate, and the cells were incubated overnight to allow the cells to adhere. The following day an eleven point, serial semilog dilution of each compound was added to the cells in 16 μL at a final concentration ranging from 0.3-0.000003 μM. At 4 or 24 hr post compound addition, the cells were fixed (10% formalin in PBS) for 20 minutes. Cells were permeabalized in PBS 0.1% Triton and blocked with LICOR blocking buffer (50 μl/well, 90′). The wells were then incubated overnight at 4° C. with SP1 rabbit monoclonal Ab (Thermo Scientific) diluted 1:1000 in LICOR blocking buffer/0.1% Tween-20. Wells which were treated with blocking buffer with Tween but no antibody were used as a background control. Wells were washed with 0.1% Tween-20/PBS and then incubated in goat anti-rabbit IRDye™ 800CW (LICOR Inc.; 1:1000) and DRAQ5 DNA dye (1:2000 for 2 mM stock) diluted in LICOR blocking buffer containing 0.1% Tween-20 and 0.01% SDS for 60 minutes. Cells were washed (50 μl/well, 5′ each) in 0.1% Tween-20/PBS. Plates were scanned on a LICOR Odyssey infrared imaging system. Integrated intensities in the 800 nm channel and 700 nm channel were measured to determine levels of ER and DNA respectively. Percent ER levels were determined as follows: (Integrated intensity 800 nm sample/integrated intensity 700 nm sample)/(Integrated intensity 800 nm untreated cells/integrated intensity 700 nm untreated cells)×100=% ER levels.

Test [3] has as its target T1, ER-α. The test is described as follows: ER-α In Cell Western Assay (ER1D5). To be noted: MCF-7 cells, ER1D5 antibody, 4 or 24 hr post compound addition, read-out: ER In-Cell Western Assay (ER1D5); for Emax: MCF7, Max Response; for DC50: IC50. The method, then: as §1, with “with ER1D5 (Santa Cruz Biotechnology)” for “with SP1 rabbit monoclonal Ab (Thermo Scientific)”, “diluted 1:100” for “diluted 1:1000”, “goat anti-mouse” for “goat anti-rabbit”

Results on eleven compounds are retold here after patent US9078871B2, “Estrogen receptor modulators and uses thereof” (SERAGON PHARMACEUTICALS, INC., priority 2010, dated 2015).

Consider `CC1=C(c2cccc(O)c2)C(c2ccc(OC[C@H](C)N3CCC[C@H]3C)cc2)Oc2ccc(O)cc21` (stereo partly drawn) [Example 23, 3-(3-Hydroxyphenyl)-4-methyl-2-(4-((S)-2-((R)-2-methylpyrrolidin-1-yl)propoxy)phenyl)-2H-chromen-6-ol], for which, in test [1], the “MCF7 Viability Assay Max Response” value was “++ (++ = a single % value ≧50%)” and the IC50 is ≤ 1 nM. For the same compound, in test [2], the Emax is ≥ 85% and the DC50 was ≤ 1 nM. Besides, in test [3], the Emax is ≥ 65% and the DC50 was ≤ 1 nM.
Consider `CC1=C(c2cccc(O)c2)C(c2ccc(OCCN3CCCCCC3)cc2)Oc2ccc(O)cc21` (stereo not drawn) [Example 17, 2-(4-(2-(Azepan-1-yl)ethoxy)phenyl)-3-(3-hydroxyphenyl)-4-methyl-2H-chromen-6-ol], for which, in test [1], the “MCF7 Viability Assay Max Response” value is reported as “+ (+ = a single % value <50%)” and the half-maximal inhibitory concentration (IC50) is ≤ 1 nM. Moreover, in test [2], the Emax was in the range of 60 to 85% and the DC50 was ≤ 1 nM. Also, in test [3], the Emax lay within 40 to 65% and the DC50 is ≤ 1 nM.
As to `CC1=C(c2cccc(O)c2)C(c2ccc(OCCN3CCC[C@@H](C)C3)cc2)Oc2ccc(O)cc21` (stereo partly drawn) [Example 53, 3-(3-Hydroxyphenyl)-4-methyl-2-(4-(2-((R)-3-methylpiperidin-1-yl)ethoxy)phenyl)-2H-chromen-6-ol], in test [1], the “MCF7 Viability Assay Max Response” value was “++ (++ = a single % value ≧50%)” and the IC50 is ≤ 1 nM. Further, in test [2], the Emax lay in the range of 60 to 85% and the DC50 was ≤ 1 nM. In test [3], the Emax was 40 to 65% and the DC50 is ≤ 1 nM.
`CC1=C(c2cccc(O)c2)C(c2ccc(OC[C@H](C)N3CCCCCC3)cc2)Oc2ccc(O)cc21` (stereo partly drawn) [Example 15, 2-(4-((S)-2-(Azepan-1-yl)propoxy)phenyl)-3-(3-hydroxyphenyl)-4-methyl-2H-chromen-6-ol]: in test [1], the “MCF7 Viability Assay Max Response” value is recorded as “++ (++ = a single % value ≧50%)” and the IC50 was ≤ 1 nM. Also, in test [2], the Emax is 60 to 85% and the DC50 is ≤ 1 nM. For the same compound, in test [3], the Emax lay within 40 to 65% and the DC50 is ≤ 1 nM.
As to `CC1=C(c2ccc(F)cc2)C(c2ccc(OC[C@H](C)N3CC[C@@H](C)C3)cc2)Oc2ccc(O)cc21` (mixture of isomers) [Example 30, 3-(4-Fluorophenyl)-4-methyl-2-(4-((S)-2-((R)-3-methylpyrrolidin-1-yl)propoxy)phenyl)-2H-chromen-6-ol], in test [1], the “MCF7 Viability Assay Max Response” value is reported as “++ (++ = a single % value ≧50%)” and the 50% inhibitory concentration (IC50) is ≤ 1 nM. For the same compound, in test [2], the Emax was 60 to 85% and the DC50 was ≤ 1 nM. In addition, in test [3], the Emax is ≥ 65% and the DC50 was ≤ 1 nM.
With `CC1=C(c2cccc(O)c2)C(c2ccc(N(C)CCO)cc2)Oc2ccc(O)cc21` (stereo not drawn) [Example 4, 2-(4-((2-Hydroxyethyl)(methyl)amino)phenyl)-3-(3-hydroxyphenyl)-4-methyl-2H-chromen-6-ol], in test [1], the “MCF7 Viability Assay Max Response” value is listed as “+ (+ = a single % value <50%)” and the IC50 was > 1 nM. For the same compound, in test [2], the Emax was < 60% and the DC50 is > 1 nM. In test [3], the Emax was < 40% and the DC50 was > 1 nM.
With `CC1=C(c2cccc(O)c2)C(c2ccc(OC[C@@H](C)N3CC[C@@H](C)C3)cc2)Oc2ccc(O)cc21` (stereo partly drawn) [Example 10, 3-(3-Hydroxyphenyl)-4-methyl-2-(4-((R)-2-((R)-3-methylpyrrolidin-1-yl)propoxy)phenyl)-2H-chromen-6-ol], in test [1], the “MCF7 Viability Assay Max Response” value is given as “+ (+ = a single % value <50%)” and the IC50 is ≤ 1 nM. In addition, in test [2], the Emax lay within 60 to 85% and the DC50 is ≤ 1 nM. In test [3], the Emax is < 40% and the DC50 is ≤ 1 nM.
On to `CC1=C(c2cccc(O)c2)C(c2ccc(OCCN3CCC[C@H]3C)cc2)Oc2ccc(O)cc21` (stereo partly drawn) [Example 20, 3-(3-Hydroxyphenyl)-4-methyl-2-(4-(2-((R)-2-methylpyrrolidin-1-yl)ethoxy)phenyl)-2H-chromen-6-ol], for which, in test [1], the “MCF7 Viability Assay Max Response” value is listed as “++ (++ = a single % value ≧50%)” and the IC50 was ≤ 1 nM. Further, in test [2], the Emax fell in the range of 60 to 85% and the DC50 is ≤ 1 nM. In test [3], the Emax lay within 40 to 65% and the DC50 is ≤ 1 nM.
As to `CC1=C(c2ccc(F)cc2)C(c2ccc(OCCN3CCCC3)cc2)Oc2ccc(O)cc21` (stereo not drawn) [Example 55, 3-(4-Fluorophenyl)-4-methyl-2-(4-(2-(pyrrolidin-1-yl)ethoxy)phenyl)-2H-chromen-6-ol], in test [1], the “MCF7 Viability Assay Max Response” value is “++ (++ = a single % value ≧50%)” and the IC50 is > 1 nM. In test [2], the Emax lay within 60 to 85% and the DC50 is ≤ 1 nM. In test [3], the Emax was 40 to 65% and the DC50 was > 1 nM.
In the case of `CC1=C(c2cccc(O)c2)C(c2ccc(OCCN3CCC3)cc2)Oc2ccc(O)cc21` (stereo not drawn) [Example 38, 2-(4-(2-(Azetidin-1-yl)ethoxy)phenyl)-3-(3-hydroxyphenyl)-4-methyl-2H-chromen-6-ol], in test [1], the “MCF7 Viability Assay Max Response” value is on record as “++ (++ = a single % value ≧50%)” and the half-inhibitory concentration (IC50) was ≤ 1 nM. Also, in test [2], the Emax lay in the range of 60 to 85% and the DC50 is ≤ 1 nM. Also, in test [3], the Emax was in the range of 40 to 65% and the DC50 is ≤ 1 nM.
With `CC1=C(c2cccc(O)c2)C(c2ccc(OCCN3CCCCCCC3)cc2)Oc2ccc(O)cc21` (stereo not drawn) [Example 25, 2-(4-(2-(Azocan-1-yl)ethoxy)phenyl)-3-(3-hydroxyphenyl)-4-methyl-2H-chromen-6-ol], in test [1], the “MCF7 Viability Assay Max Response” value was “+ (+ = a single % value <50%)” and the IC50 was ≤ 1 nM. Also, in test [2], the Emax was < 60% and the DC50 is ≤ 1 nM. Also, in test [3], the Emax is < 40% and the DC50 was ≤ 1 nM.
